pIC50: −log10 of the molar value.
What was measured:
Vitamin D3 receptor = molecular target: T1, Vitamin D3 receptor (Gallus gallus, UniProt O42392); experiment: In vitro relative binding affinity for chick intestinal vitamin D3 receptor compared to [3H]1
T1 sequence (O42392 whole entry): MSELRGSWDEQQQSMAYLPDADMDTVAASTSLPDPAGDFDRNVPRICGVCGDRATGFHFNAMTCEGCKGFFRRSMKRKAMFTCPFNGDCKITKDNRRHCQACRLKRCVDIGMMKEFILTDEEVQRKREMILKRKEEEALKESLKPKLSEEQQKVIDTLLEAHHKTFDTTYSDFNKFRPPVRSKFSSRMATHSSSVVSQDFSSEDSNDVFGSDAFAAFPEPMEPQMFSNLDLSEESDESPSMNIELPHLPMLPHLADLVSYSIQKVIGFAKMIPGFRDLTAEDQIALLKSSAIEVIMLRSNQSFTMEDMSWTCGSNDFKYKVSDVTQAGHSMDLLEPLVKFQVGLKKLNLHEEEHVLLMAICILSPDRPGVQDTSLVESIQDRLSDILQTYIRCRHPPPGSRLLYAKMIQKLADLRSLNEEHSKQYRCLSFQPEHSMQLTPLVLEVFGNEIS

HL-60 = experiment: Inhibitory activity on HL-60 cell differentiation induced by 10e-8 M of compound 1 (1,25-D3); parameters: scale not given: the % may be the effect or the level left

SMILES	pIC50 (Vitamin D3 receptor)	Activity (HL-60)
C=C1/C(=C/C=C2/CCC[C@@]3(C)C2CCC3[C@H](C)C[C@@H]2C[C@@](C)(O)C(=O)N2Cc2ccccc2)C[C@@H](O)C[C@@H]1O (stereo partly drawn)	7.52	
C=C1/C(=C/C=C2/CCC[C@@]3(C)C2CCC3[C@H](C)C[C@H]2C[C@](C)(O)C(=O)N2Cc2ccccc2)C[C@@H](O)C[C@@H]1O (stereo partly drawn)	8.72	47%
C=C1/C(=C/C=C2/CCC[C@@]3(C)C2CCC3[C@H](C)C[C@H]2C[C@](C)(O)C(=O)N2C)C[C@@H](O)C[C@@H]1O (stereo partly drawn)	7.99	12%
C=C1/C(=C/C=C2/CCC[C@]3(C)[C@@H]([C@H](C)C[C@@H]4C[C@@](C)(O)C(=O)N4C)CC[C@@H]23)C[C@@H](O)C[C@@H]1O	7.30	

Further lines, with some results ahead:

pIC50 (Vitamin D3 receptor)	SMILES	Activity (HL-60)
< 7.00	C=C1/C(=C/C=C2/CCC[C@]3(C)[C@@H]([C@H](C)C[C@@H]4C[C@](C)(O)C(=O)N4C)CC[C@@H]23)C[C@@H](O)C[C@@H]1O (stereo in doubt; form 1)	
< 7.00	C=C1/C(=C/C=C2/CCC[C@]3(C)[C@@H]([C@H](C)C[C@@H]4C[C@](C)(O)C(=O)N4C)CC[C@@H]23)C[C@@H](O)C[C@@H]1O (stereo in doubt; form 2)	
